Assay results as given in patent US20250346643A1, “TROPOMYOSIN KINASE RECEPTOR (TRK) LIGANDS AS THERAPEUTICS TO SUPPORT LIVER REGENERATION” (Vanderbilt University, priority 2024, published 2025).
Where two headings read alike, the source gives them in different places.

System: liver regeneration after partial hepatectomy
Type: in vivo, mouse
Procedure: Partial hepatectomy. All surgeries were performed per the National Institutes of Health recommendations contained in the Guide for the Care and Use of Laboratory. Mice were anesthetized with isoflurane and received preoperative extended-release buprenorphine subcutaneous (s.c.) for analgesia and eye ointment for protection. […] The evisceration of the median and left lateral lobes allowed suture ligation and ˜70% hepatectomy. Skin and abdominal muscles were closed in a two-step procedure. Mice were euthanized 1 h, 24 h, 2 days, 3 days, and 4 days after partial hepatectomy, and tissues were collected for processing. To test if recombinant NTF3 promotes liver regeneration, mice were injected intravenous (i.v.) with recombinant NTF3 (STEMCELL Technologies, Vancouver, Canada; catalog no. 78074, lot nos. 1000070683 and 1000077434) diluted in sterile 0.9% saline (0.9% NaCl) or vehicle only at approximately 1 hour prior to partial hepatectomy. Mice were then injected i.v. once per day with recombinant NTF3 or vehicle at 20 ng/g body weight until sacrifice. Lyophilized NTF3 was solubilized in 0.1% BSA/PBS (Sigma-Aldrich, St. Louis, MO; A3059) and stored at −80° C. until use.
Serum chemistry. Whole blood was collected in blood collection tubes supplemented with lithium heparin (BD vacutainer, Franklin Lakes, NJ; Cat.366664). Blood was centrifuged at 4000 g for 15 min and the plasma collected and stored at −80° C. until analysis. Plasma was analyzed on a VetScan® vs2 (Abaxis, Union City, CA) using mammalian liver profile analysis discs (Abaxis, Union City, CA; 500-0040) according to the manufacturer's instructions.
Immunohistochemistry. For immunohistochemistry, formalin-fixed paraffin-embedded (FFPE) sections were cut at a 4-μm thickness, and slides were incubated at 65° C. for 30 min. Slides were deparaffinized in Histo-Clear® (National Diagnostics, Charlotte, NC; HS2001GLL) and rehydrated by an ethanol gradient. Heat antigen retrieval was performed in 10 mM sodium citrate (pH 6.0) in a pressure cooker (Cuisinart®, CPC-600C), for 20 min at high pressure, natural pressure release for 30 min, and cooled at room temperature for 30 min. Endogenous peroxidase quenching was performed with 1.5% hydrogen peroxide (Sigma-Aldrich, St. Louis, MO; H1009) for 20 min, and slides were washed twice in PBS. Blocking was performed for 30 min with Protein Block, Serum-free (Agilent, Santa Clara, CA; X090930-2). The primary antibody was diluted in antibody diluent (Agilent, Santa Clara, CA; S080983-2) and applied to the slides in a wet chamber overnight at 4° C. After two washes in PBS, slides were incubated with the appropriate secondary antibody for 30 min, followed by two washes in PBS. […] The same reveal time was then used on all experimental slides. Slides were stained with hematoxylin (Sigma-Aldrich, St. Louis, MO; GHS332) for 30 s, washed gently in lukewarm tap water for 5 min, and washed twice in distilled water, followed by two washes in PBS (pH 7.4). Slides were washed in increasing ethanol/water gradients, followed by three washes in Histo-Clear®. Whole-slide scans for subsequent analyses and publishing were obtained using an SCN400 slide scanner (Leica, Wetzlar, Germany). Whole-slide images were processed and annotated in QuPath 0.5.1.

[1] = 2 days after partial hepatectomy, NTF3 20 ng/g i.v. once per day
[2] = 4 days after partial hepatectomy, NTF3 20 ng/g i.v. once per day

NTF3: neurotrophin-3, recombinant protein; HSC-derived hepatocyte mitogen, ligand of TRKA, TRKB, TRKC
liver to body weight ratio vs vehicle [1]: similar
number of Ki67+ hepatocytes vs vehicle [1]: significantly increased
number of Ki67+ hepatocytes vs vehicle (4 days after partial hepatectomy): increased number
liver to body weight ratio vs controls [2]: significantly increased
relative increase of liver to body weight ratio compared to controls [2]: 10-23%
adverse effects (mouse, in vivo): no adverse effects
serum ALP vs vehicle (mouse, in vivo): similar
serum ALT vs vehicle (mouse, in vivo): similar
serum albumin vs vehicle (mouse, in vivo): similar
